Earlier results, collected in patent US11654127B2, “Composition for use in the prevention and/or treatment of Oncologic Treatment Induced Orogastrointestinal Mucositis” (Mucosa Innovations, S.L., priority 2017, dated 2023).

Tested on: OTIOM
Conditions: saliva stimulant

**Q.** With `CC[C@@H]1C(=O)OC[C@@H]1Cc1cncn1C` [pilocarpine] as the molecule, how does the “effect in preventing or treating OTIOM” value read?
**A.** no beneficial effect
